Reference: PubChem BioAssay AID1845194 (Molecular Pharmacology Branch, DTP, NCI, 2023)

Test system: 287954-098-R-J1 tumor spheroid viability
Experiment: Anticancer human tumor 287954-098-R-J1 patient-derived Ewing sarcoma cell line growth inhibition
Details: spheroids with HUVEC and MSC; for IC50: curve of first compound; for viability, T/C: stronger effect = lower value
How it was run: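 Complex tumor spheroids combined malignant cells with endothelial cells and mesenchymal stem cells. DNA-damaging drugs and DNA repair inhibitors were tested alone and in combination, at half-log dilutions down from clinical Cmax (top 10 microM if Cmax unknown), 0.25% DMSO final.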

[1] = second compound 1 µM, first compound 0.0316 µM
[2] = second compound 1 µM, first compound 0.1 µM
[3] = second compound 1 µM, first compound 0.316 µM
[4] = second compound 1 µM, first compound 1 µM
[5] = second compound 1 µM, first compound 3.16 µM
[6] = second compound 1 µM, first compound 10 µM
[7] = second compound 3.16 µM, first compound 0.0316 µM
[8] = second compound 3.16 µM, first compound 0.1 µM
[9] = second compound 3.16 µM, first compound 0.316 µM
[10] = second compound 3.16 µM, first compound 1 µM
[11] = second compound 3.16 µM, first compound 3.16 µM
[12] = second compound 3.16 µM, first compound 10 µM
[13] = second compound 10 µM, first compound 0.0316 µM
[14] = second compound 10 µM, first compound 0.1 µM
[15] = second compound 10 µM, first compound 0.316 µM
[16] = second compound 10 µM, first compound 1 µM
[17] = second compound 10 µM, first compound 3.16 µM
[18] = second compound 10 µM, first compound 10 µM
[19] = second compound 31.6 µM, first compound 0.0316 µM
[20] = second compound 31.6 µM, first compound 0.1 µM
[21] = second compound 31.6 µM, first compound 0.316 µM
[22] = second compound 31.6 µM, first compound 1 µM
[23] = second compound 31.6 µM, first compound 3.16 µM
[24] = second compound 31.6 µM, first compound 10 µM
[25] = second compound 100 µM, first compound 0.0316 µM
[26] = second compound 100 µM, first compound 0.1 µM
[27] = second compound 100 µM, first compound 0.316 µM
[28] = second compound 100 µM, first compound 1 µM
[29] = second compound 100 µM, first compound 3.16 µM
[30] = second compound 100 µM, first compound 10 µM
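Also: spheroids exposed to compound for 7 days before viability readout.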
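For viability, T/C in this document: luminescent signal taken as surrogate of viable cell content; 100% = DMSO vehicle control viability and lower means growth inhibition.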

In the case of `COc1ccc([C@@H](O)c2cc(-c3ncnc4cc(N5CCOCC5)ccc34)c(F)cc2Cl)nn1` + Cn1nnc2c(C(N)=O)ncn2c1=O, the IC50 (second compound 1 µM) is reported as greater than 10 µM, the IC50 (second compound 3.16 µM) is reported as greater than 10 µM and the IC50 (second compound 10 µM) is reported as greater than 10 µM. The IC50 (second compound 31.6 µM) was greater than 10 µM, the IC50 (second compound 100 µM) was greater than 10 µM and the viability, T/C [1] was 107%. For the same compound, the viability, T/C [2] was 109%, the viability, T/C [3] was 109% and the viability, T/C [4] was 112%. It also gave a viability, T/C [5] of 101%, a viability, T/C [6] of 92.8% and a viability, T/C [7] of 105%. It also gave a viability, T/C [8] of 105%, a viability, T/C [9] of 104% and a viability, T/C [10] of 107%. It also gave a viability, T/C [11] of 101%, a viability, T/C [12] of 94.5% and a viability, T/C [13] of 107%. For the same compound, the viability, T/C [14] was 106%, the viability, T/C [15] was 101% and the viability, T/C [16] was 105%. For the same compound, the viability, T/C [17] was 105%, the viability, T/C [18] was 101% and the viability, T/C [19] was 103%. It also gave a viability, T/C [20] of 111%, a viability, T/C [21] of 105% and a viability, T/C [22] of 112%. For the same compound, the viability, T/C [23] was 110%, the viability, T/C [24] was 97% and the viability, T/C [25] was 102%. For the same compound, the viability, T/C [26] was 110%, the viability, T/C [27] was 104% and the viability, T/C [28] was 109%. The viability, T/C [29] was 96.9% and the viability, T/C [30] was 84%.

Work on `COc1cc(C)[nH]c(=O)c1CN1CCc2c(Cl)cc(C(OC)C3COC3)c(Cl)c2C1=O` (stereo not given) + Cn1nnc2c(C(N)=O)ncn2c1=O yielded an IC50 (second compound 1 µM) greater than 10 µM, an IC50 (second compound 3.16 µM) greater than 10 µM and an IC50 (second compound 10 µM) greater than 10 µM. It also gave an IC50 (second compound 31.6 µM) greater than 10 µM, an IC50 (second compound 100 µM) greater than 10 µM and a viability, T/C [1] of 98%. The viability, T/C [2] was 89.7%, the viability, T/C [3] was 96.8% and the viability, T/C [4] was 93.3%. It also gave a viability, T/C [5] of 89%, a viability, T/C [6] of 90.7% and a viability, T/C [7] of 105%. The viability, T/C [8] was 100%, the viability, T/C [9] was 96.5% and the viability, T/C [10] was 91.9%. The viability, T/C [11] was 86.9%, the viability, T/C [12] was 93.3% and the viability, T/C [13] was 102%. For the same compound, the viability, T/C [14] was 99.6%, the viability, T/C [15] was 90.1% and the viability, T/C [16] was 89.6%. The viability, T/C [17] was 89.9%, the viability, T/C [18] was 93% and the viability, T/C [19] was 102%. For the same compound, the viability, T/C [20] was 97.4%, the viability, T/C [21] was 93.3% and the viability, T/C [22] was 89.8%. For the same compound, the viability, T/C [23] was 90.7%, the viability, T/C [24] was 96.1% and the viability, T/C [25] was 95%. For the same compound, the viability, T/C [26] was 99.9%, the viability, T/C [27] was 87.7% and the viability, T/C [28] was 83.9%. It also gave a viability, T/C [29] of 87% and a viability, T/C [30] of 83.5%.

For `O=C(c1cc(Cc2n[nH]c(=O)c3ccccc23)ccc1F)N1CCN(C(=O)C2CC2)CC1` + COc1cc2c(cc1O)CCNC21CSC2c3c(OC(C)=O)c(C)c4c(c3C(COC1=O)N1C(O)C3Cc5cc(C)c(OC)c(O)c5C(C21)N3C)OCO4, the IC50 (second compound 30 pM) was 9.18 µM, the IC50 (second compound 94.9 pM) was 10.5 µM and the IC50 (second compound 0.0003 µM) was 1.46 µM. The IC50 (second compound 0.000949 µM) was less than 0.0949 µM, the IC50 (second compound 0.003 µM) was less than 0.0949 µM and the viability, T/C (second compound 30 pM, first compound 0.0949 µM) was 112%. It also gave a viability, T/C (second compound 30 pM, first compound 0.3 µM) of 108%, a viability, T/C (second compound 30 pM, first compound 0.949 µM) of 99.5% and a viability, T/C (second compound 30 pM, first compound 3 µM) of 112%. For the same compound, the viability, T/C (second compound 30 pM, first compound 9.49 µM) was 48.3%, the viability, T/C (second compound 30 pM, first compound 30 µM) was 4.03% and the viability, T/C (second compound 94.9 pM, first compound 0.0949 µM) was 114%. It also gave a viability, T/C (second compound 94.9 pM, first compound 0.3 µM) of 114%, a viability, T/C (second compound 94.9 pM, first compound 0.949 µM) of 109% and a viability, T/C (second compound 94.9 pM, first compound 3 µM) of 109%. For the same compound, the viability, T/C (second compound 94.9 pM, first compound 9.49 µM) was 54.4%, the viability, T/C (second compound 94.9 pM, first compound 30 µM) was 2.51% and the viability, T/C (second compound 0.0003 µM, first compound 0.0949 µM) was 98.8%. It also gave a viability, T/C (second compound 0.0003 µM, first compound 0.3 µM) of 102%, a viability, T/C (second compound 0.0003 µM, first compound 0.949 µM) of 68% and a viability, T/C (second compound 0.0003 µM, first compound 3 µM) of 18.6%. For the same compound, the viability, T/C (second compound 0.0003 µM, first compound 9.49 µM) was 0.6%, the viability, T/C (second compound 0.0003 µM, first compound 30 µM) was 0.57% and the viability, T/C (second compound 0.000949 µM, first compound 0.0949 µM) was 0.38%. It also gave a viability, T/C (second compound 0.000949 µM, first compound 0.3 µM) of 0.39%, a viability, T/C (second compound 0.000949 µM, first compound 0.949 µM) of 0.26% and a viability, T/C (second compound 0.000949 µM, first compound 3 µM) of 0.18%. It also gave a viability, T/C (second compound 0.000949 µM, first compound 9.49 µM) of 0.07%, a viability, T/C (second compound 0.000949 µM, first compound 30 µM) of 0.23% and a viability, T/C (second compound 0.003 µM, first compound 0.0949 µM) of 0.32%. The viability, T/C (second compound 0.003 µM, first compound 0.3 µM) was 0.31%, the viability, T/C (second compound 0.003 µM, first compound 0.949 µM) was 0.3% and the viability, T/C (second compound 0.003 µM, first compound 3 µM) was 0.29%. For the same compound, the viability, T/C (second compound 0.003 µM, first compound 9.49 µM) was 0.28% and the viability, T/C (second compound 0.003 µM, first compound 30 µM) was 0.35%.
